Results on 17 compounds are retold here after patent US20240199647A1, “ANTI-VIRAL COMPOUNDS” (Aligos Therapeutics, Inc., priority 2022, published 2024).

Like-named read-outs stand apart in the source and are kept apart here.

Broadly, the EC50 is the concentration at which the effect is half-maximal. As usually defined, the IC50 is the concentration that inhibits the measured activity by half.

Data set [1] concerns SARS-CoV-2 B.1.1.7 lineage. Put plainly: microbe, parasite or virus in culture. It is filed as cell-based. The note with it: Severe acute respiratory syndrome coronavirus 2, Table C, SARS-CoV-2 B.1.1.7 in A549-dual_ACE2_TMPRSS2 cells, read-out: A549-dual_ACE2_TMPRSS2 (EC50).
Data set [2] is described as follows: Cytotoxicity in HeLa cells without addition of OC43 virus (in parallel). The note with it: human, HeLa cells, without OC43 virus.
Another data set is described as follows: in vitro. The note with it: human.
A further data set deals with SARS-Cov-2 3CLpro (Severe acute respiratory syndrome coronavirus 2, UniProt P0DTD1). Description: biochemical. Particulars: Table A, class symbols, read-out: SARS-Cov-2 (IC50).
The test system of data set [3] is human beta-coronavirus OC43. Put plainly: OC43 Coronavirus Assay in HeLa cells (antiviral, cytopathic effect, cell-titer-glo). Format: cell-based. The note with it: Betacoronavirus 1, OC43, HeLa, Table B, OC43 coronavirus in HeLa cells, read-out: EC50. (Cytopathic effects are the visible damage that an infection or toxin causes in cultured cells.)

With `CN(C(=O)[C@@H]1CC[C@@H](c2ccccc2)N1)[C@@H](CC1CC1)C(=O)N1C[C@@]2(C[C@H]1C#N)Oc1cc(F)cc(F)c1NC2=O` [Compound 111, (2S,5S)—N—((S)-1-((2R,5'S)-5′-cyano-5,7-difluoro-3-oxo-3,4-dihydrospiro[benzo[b][1,4]oxazine-2,3′-pyrrolidin]-1′-yl)-3-cyclopropyl-1-oxopropan-2-yl)-N-methyl-5-phenylpyrrolidine-2-carboxamide], the EC50 in data set [1] (class symbols) and in data set [3] (class symbols) was 0.1 to 1 µM in each case. The same compound registered a CC50 at 6 days in data set [2] of more than 10 µM. For the same compound, the CC50 in the data set “in vitro” is more than 1 µM. In addition, the IC50 at SARS-Cov-2 3CLpro is less than 0.02 µM.
`CCOC[C@H](NC(=O)C(F)(F)F)C(=O)N(C)[C@@H](CC1CC1)C(=O)N1C[C@@]2(C[C@H]1C#N)Oc1cccnc1NC2=O` [Compound 220]: the EC50 in data set [1] (class symbols) was 0.1 to 1 µM; in data set [3] (class symbols), less than 0.1 µM. Moreover, the CC50 at 6 days in data set [2] is more than 10 µM. In “in vitro”, this compound registered a CC50 of more than 1 µM. On SARS-Cov-2 3CLpro, the IC50 is less than 0.02 µM.
For the compound `C[C@H](NC(=O)C(F)(F)F)C(=O)N(C)[C@@H](CC1CC1)C(=O)N1C[C@@]2(C[C@H]1C#N)Oc1cccc(F)c1NC2=O` [Compound 98], the EC50 in data set [1] (class symbols) is less than 0.1 µM; in data set [3] (class symbols) it was 0.1 to 1 µM. In data set [2], this compound yielded a CC50 at 6 days of more than 10 µM. Further, the CC50 in “in vitro” was more than 1 µM. In addition, the IC50 at SARS-Cov-2 3CLpro is less than 0.02 µM.
Turning to `CN(C(=O)C(O)c1ccc(F)cc1)[C@@H](CC1CC1)C(=O)N1C[C@@]2(C[C@H]1C#N)Oc1cc(F)cc(F)c1NC2=O` (stereo partly shown) [Compound 136], the EC50 in data set [1] (class symbols) and in data set [3] (class symbols) was 0.1 to 1 µM in each case. This compound gave a CC50 at 6 days in data set [2] of more than 10 µM. Moreover, the CC50 in “in vitro” was more than 1 µM. Besides, the IC50 at SARS-Cov-2 3CLpro was less than 0.02 µM.
For the compound `CC(C)C[C@@H](C(=O)N1C[C@@]2(C[C@H]1C#N)Oc1cc(F)cc(F)c1NC2=O)N(C)C(=O)[C@H](CC1CC1)NC(=O)C(F)(F)F` [Example 36, (S)—N—((S)-1-((2R,5'S)-5′-cyano-5,7-difluoro-3-oxo-3,4-dihydrospiro[benzo[b][1,4]oxazine-2,3′-pyrrolidin]-1′-yl)-4-methyl-1-oxopentan-2-yl)-3-cyclopropyl-N-methyl-2-(2,2,2-trifluoroacetamido)propanamide], the EC50 is 0.1 to 1 µM in data set [1] (class symbols) and less than 0.1 µM in data set [3] (class symbols). In data set [2], this compound returned a CC50 at 6 days of more than 10 µM. The compound also registered a CC50 in “in vitro” of more than 1 µM. The IC50 at SARS-Cov-2 3CLpro is less than 0.02 µM.
As to `C[C@@H](C(=O)N(C)[C@@H](CC1CC1)C(=O)N1C[C@@]2(C[C@H]1C#N)Oc1cccnc1NC2=O)n1cc(C2CC2)nn1` [Compound 155], the EC50 in data set [1] (class symbols) and in data set [3] (class symbols) was 0.1 to 1 µM throughout. The compound further displayed a CC50 at 6 days in data set [2] of more than 10 µM. The compound further gave a CC50 in the data set “in vitro” of more than 1 µM. For the same compound, the IC50 on SARS-Cov-2 3CLpro fell in the range of 0.02 to 0.2 µM.
As to `CN(C(=O)[C@H](CC(F)F)NC(=O)C(F)(F)F)[C@@H](CC1CC1)C(=O)N1C[C@@]2(C[C@H]1C#N)Oc1cc(F)cc(F)c1NC2=O` [Compound 86], the EC50 in data set [1] (class symbols) is less than 0.1 µM; in data set [3] (class symbols) it was 0.1 to 1 µM. The same compound gave a CC50 at 6 days in data set [2] of more than 10 µM. The compound also came in with a CC50 in “in vitro” of more than 1 µM. Besides, the IC50 on SARS-Cov-2 3CLpro is less than 0.02 µM.
For `CC(C)C[C@@H](C(=O)N1C[C@@]2(C[C@H]1C#N)Oc1cc(F)cc(F)c1NC2=O)N(C)C(=O)[C@H](Cc1ccc(F)cc1)NC(=O)C(F)(F)F` [Compound 69], the EC50 was 0.1 to 1 µM in data set [1] (class symbols) and more than 10 µM in data set [3] (cells given as a bound). Besides, the CC50 at 6 days in data set [2] was more than 10 µM. Moreover, in “in vitro”, the CC50 is more than 1 µM. On SARS-Cov-2 3CLpro, the IC50 is less than 0.02 µM.
`CC(C)C[C@H](NC(=O)C(F)(F)F)C(=O)N(C)[C@@H](CC(C)C)C(=O)N1C[C@@]2(C[C@H]1C#N)Oc1cc(F)cc(F)c1NC2=O` [Compound 63]: the EC50 in data set [1] (class symbols) and in data set [3] (class symbols) was 0.1 to 1 µM each time. Besides, in data set [2], the CC50 at 6 days was more than 10 µM. Further, the CC50 in the data set “in vitro” is more than 1 µM. For the same compound, the IC50 at SARS-Cov-2 3CLpro is less than 0.02 µM.
Take `CC(C)C[C@@H](C(=O)N1C[C@]2(C[C@H]1C#N)C(=O)NCc1nccn12)N(C)C(=O)[C@H](C)NC(=O)C(F)(F)F` [Example 46, (S)—N—((S)-1-((5R,5'S)-5′-cyano-6-oxo-7,8-dihydro-6H-spiro[imidazo[1,2-a]pyrazine-5,3′-pyrrolidin]-1′-yl)-4-methyl-1-oxopentan-2-yl)-N-methyl-2-(2,2,2-trifluoroacetamido)propanamide]: the values for the EC50 in data set [1] (cells given as a bound) and in data set [3] (cells given as a bound) were more than 1 µM and more than 10 µM, respectively. For the same compound, the CC50 at 6 days in data set [2] was more than 10 µM. In the data set “in vitro”, this compound yielded a CC50 of more than 1 µM. The IC50 on SARS-Cov-2 3CLpro is 0.02 to 0.2 µM.
As for `COC(=O)N[C@@H](C)C(=O)N(C)[C@@H](CC(C)C)C(=O)N1C[C@@]2(C[C@H]1C#N)Oc1cc(F)cc(F)c1NC2=O` [Compound 70], the EC50 in data set [1] (class symbols) was 0.1 to 1 µM; in data set [3] (cells given as a bound), more than 10 µM. Besides, in data set [2], the CC50 at 6 days is more than 10 µM. The CC50 in the data set “in vitro” is more than 1 µM. Also, the half-inhibitory concentration (IC50) on SARS-Cov-2 3CLpro is less than 0.02 µM.
As to `CN(C(=O)[C@H](CC1CC1)NC(=O)C(F)(F)F)[C@@H](CC1CC1)C(=O)N1C[C@@]2(C[C@H]1C#N)Oc1cc(F)cc(F)c1CNC2=O` [Compound 207], the EC50 in data set [1] (class symbols) and in data set [3] (class symbols) was less than 0.1 µM each time. In data set [2], the CC50 at 6 days was more than 10 µM. The CC50 in the data set “in vitro” is more than 1 µM. In addition, at SARS-Cov-2 3CLpro, the IC50 lay in the range of 0.02 to 0.2 µM.
Consider `CN(C(=O)[C@H](CC(C)(C)C)NC(=O)C(F)(F)F)[C@@H](CC1CC1)C(=O)N1C[C@@]2(C[C@H]1C#N)Oc1cccnc1NC2=O` [Compound 188], for which the EC50 in data set [1] (class symbols) and in data set [3] (class symbols) was less than 0.1 µM throughout. Moreover, the CC50 at 6 days in data set [2] was more than 10 µM. The compound also gave a CC50 in the data set “in vitro” of more than 1 µM. Further, the IC50 at SARS-Cov-2 3CLpro is less than 0.02 µM.
Regarding `CN(C(=O)[C@H](CC(F)(F)F)NC(=O)C(F)(F)F)[C@@H](CC1CC1)C(=O)N1C[C@@]2(C[C@H]1C#N)Oc1cccnc1NC2=O` [Compound 189], the EC50 in data set [1] (class symbols) and in data set [3] (class symbols) was 0.1 to 1 µM throughout. The compound further showed a CC50 at 6 days in data set [2] of more than 10 µM. Also, in “in vitro”, the CC50 was more than 1 µM. Further, at SARS-Cov-2 3CLpro, the IC50 was 0.02 to 0.2 µM.
As to `Cc1cc2n(n1)[C@@]1(C[C@@H](C#N)N(C(=O)[C@H](CC(C)C)N(C)C(=O)[C@H](C)NC(=O)C(F)(F)F)C1)C(=O)N2` [Example 44, (S)—N—((S)-1-((3R,5'S)-5′-cyano-6-methyl-2-oxo-1,2-dihydrospiro[imidazo[1,2-b]pyrazole-3,3′-pyrrolidin]-1′-yl)-4-methyl-1-oxopentan-2-yl)-N-methyl-2-(2,2,2-trifluoroacetamido)propanamide], the EC50 is more than 1 µM in data set [1] (cells given as a bound) and 0.1 to 1 µM in data set [3] (class symbols). The CC50 at 6 days in data set [2] was more than 10 µM. Moreover, in “in vitro”, the CC50 is more than 1 µM. Further, on SARS-Cov-2 3CLpro, the IC50 is 0.02 to 0.2 µM.
Consider `C[C@H](NC(=O)C(F)(F)C(F)(F)F)C(=O)N(C)[C@@H](CC1CC1)C(=O)N1C[C@@]2(C[C@H]1C#N)Oc1cccnc1NC2=O` [Compound 170], for which the EC50 in data set [1] (class symbols) and in data set [3] (class symbols) was less than 0.1 µM throughout. The CC50 at 6 days in data set [2] was more than 10 µM. The compound further registered a CC50 in “in vitro” of more than 1 µM. Moreover, on SARS-Cov-2 3CLpro, the IC50 was less than 0.02 µM.
Consider `CN(C(=O)[C@H](COC(C)(C)C)NC(=O)C(F)(F)F)[C@@H](CC1CC1)C(=O)N1C[C@@]2(C[C@H]1C#N)Oc1cccnc1NC2=O` [Compound 190], for which the values for the EC50 in data set [1] (class symbols) and in data set [3] (class symbols) were 0.1 to 1 µM and less than 0.1 µM, respectively. For the same compound, in data set [2], the CC50 at 6 days was more than 10 µM. This compound also came in with a CC50 in “in vitro” of more than 1 µM. Besides, the IC50 on SARS-Cov-2 3CLpro is less than 0.02 µM.
